Measured values from patent US7557092B2, “Purinergic modulation of smell” (University of Utah Research Foundation, priority 2002, dated 2009).
Read-outs that look alike come from different tables or passages of the source.

Experiments:
P2X2 = biological target: T1, P2X2 (Rattus norvegicus, UniProt P49653); details: cDNA from Rat PC12 cells; cited from earlier work
T1 construct: host or cells: Xenopus oocytes
T1 sequence (P49653 1-472): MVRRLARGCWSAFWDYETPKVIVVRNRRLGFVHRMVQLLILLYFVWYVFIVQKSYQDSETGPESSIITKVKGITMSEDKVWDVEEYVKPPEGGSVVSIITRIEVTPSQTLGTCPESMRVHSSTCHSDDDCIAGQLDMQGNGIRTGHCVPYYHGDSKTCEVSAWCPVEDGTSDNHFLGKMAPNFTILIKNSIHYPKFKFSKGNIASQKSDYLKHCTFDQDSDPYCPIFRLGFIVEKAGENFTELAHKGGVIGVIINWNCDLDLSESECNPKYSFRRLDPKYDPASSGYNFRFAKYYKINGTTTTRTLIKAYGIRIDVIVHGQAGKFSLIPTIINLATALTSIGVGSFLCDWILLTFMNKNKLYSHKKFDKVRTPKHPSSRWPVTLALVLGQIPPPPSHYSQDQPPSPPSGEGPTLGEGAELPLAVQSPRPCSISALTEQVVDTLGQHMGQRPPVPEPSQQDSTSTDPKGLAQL

P2X4 = biological target: T2, P2X4 (Rattus norvegicus, UniProt P51577); details: cDNA from Rat superior cervical ganglion; cited from earlier work
T2 construct: host or cells: Xenopus oocytes
T2 sequence (P51577 1-388): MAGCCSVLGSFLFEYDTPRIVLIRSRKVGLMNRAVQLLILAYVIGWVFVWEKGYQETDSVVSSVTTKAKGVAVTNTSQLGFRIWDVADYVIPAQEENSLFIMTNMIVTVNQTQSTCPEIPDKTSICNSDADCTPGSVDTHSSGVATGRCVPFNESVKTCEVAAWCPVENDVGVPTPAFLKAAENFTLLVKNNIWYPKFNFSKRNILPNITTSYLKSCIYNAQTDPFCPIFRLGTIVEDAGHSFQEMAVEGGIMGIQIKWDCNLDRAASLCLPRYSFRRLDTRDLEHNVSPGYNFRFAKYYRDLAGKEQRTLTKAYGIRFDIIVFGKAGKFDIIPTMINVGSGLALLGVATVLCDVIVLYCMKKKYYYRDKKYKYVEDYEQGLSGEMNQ

P2X5 = biological target: T3, P2X5 (Rattus norvegicus, UniProt P51578); details: cDNA from Rat ganglia; cited from earlier work
T3 construct: host or cells: Xenopus oocytes
T3 sequence (P51578 1-455): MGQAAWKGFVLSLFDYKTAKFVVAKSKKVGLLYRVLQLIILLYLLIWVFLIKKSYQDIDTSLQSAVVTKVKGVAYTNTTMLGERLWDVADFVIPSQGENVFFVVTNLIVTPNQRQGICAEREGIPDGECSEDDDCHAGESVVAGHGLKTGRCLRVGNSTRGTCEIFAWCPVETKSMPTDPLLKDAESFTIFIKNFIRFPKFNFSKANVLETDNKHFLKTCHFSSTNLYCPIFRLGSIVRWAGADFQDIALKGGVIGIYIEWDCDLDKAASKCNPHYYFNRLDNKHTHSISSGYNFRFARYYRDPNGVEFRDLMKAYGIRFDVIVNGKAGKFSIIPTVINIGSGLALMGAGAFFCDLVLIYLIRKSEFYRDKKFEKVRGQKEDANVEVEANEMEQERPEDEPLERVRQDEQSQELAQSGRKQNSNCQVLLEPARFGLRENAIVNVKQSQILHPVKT

P2X6 = biological target: T4, P2X6 (Rattus norvegicus, UniProt P51579); details: cDNA from Rat superior cervical ganglion; cited from earlier work
T4 construct: host or cells: Xenopus oocytes
T4 sequence (P51579 whole entry): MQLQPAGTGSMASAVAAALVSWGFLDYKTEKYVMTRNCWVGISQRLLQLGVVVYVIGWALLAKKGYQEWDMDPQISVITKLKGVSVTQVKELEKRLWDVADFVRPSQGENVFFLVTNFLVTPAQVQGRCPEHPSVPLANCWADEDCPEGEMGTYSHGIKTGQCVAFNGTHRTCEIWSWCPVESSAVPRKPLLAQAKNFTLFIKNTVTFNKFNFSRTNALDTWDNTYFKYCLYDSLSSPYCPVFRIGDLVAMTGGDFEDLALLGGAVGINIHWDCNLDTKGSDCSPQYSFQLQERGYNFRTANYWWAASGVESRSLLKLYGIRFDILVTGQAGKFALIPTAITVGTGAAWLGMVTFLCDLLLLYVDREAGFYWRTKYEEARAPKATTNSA

P2Y1 [1] = biological target: P2Y1 (Rattus norvegicus, UniProt P49651); details: cited from earlier work
Sequence of P2Y1 (Rattus norvegicus, UniProt P49651) (P49651 whole entry): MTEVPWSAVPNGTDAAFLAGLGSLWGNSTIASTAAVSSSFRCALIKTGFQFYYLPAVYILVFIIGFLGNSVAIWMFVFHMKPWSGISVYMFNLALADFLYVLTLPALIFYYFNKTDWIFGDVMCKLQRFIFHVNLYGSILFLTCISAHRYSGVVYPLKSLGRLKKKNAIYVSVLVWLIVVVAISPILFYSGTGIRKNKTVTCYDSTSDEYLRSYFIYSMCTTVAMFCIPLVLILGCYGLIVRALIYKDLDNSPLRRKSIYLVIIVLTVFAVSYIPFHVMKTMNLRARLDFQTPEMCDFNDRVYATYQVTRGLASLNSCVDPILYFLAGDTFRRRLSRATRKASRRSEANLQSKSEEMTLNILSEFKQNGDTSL

P2Y11 = biological target: T5, P2Y11 (Homo sapiens, UniProt Q96G91); details: cDNA from Human placenta; cited from earlier work
T5 sequence (Q96G91 1-374): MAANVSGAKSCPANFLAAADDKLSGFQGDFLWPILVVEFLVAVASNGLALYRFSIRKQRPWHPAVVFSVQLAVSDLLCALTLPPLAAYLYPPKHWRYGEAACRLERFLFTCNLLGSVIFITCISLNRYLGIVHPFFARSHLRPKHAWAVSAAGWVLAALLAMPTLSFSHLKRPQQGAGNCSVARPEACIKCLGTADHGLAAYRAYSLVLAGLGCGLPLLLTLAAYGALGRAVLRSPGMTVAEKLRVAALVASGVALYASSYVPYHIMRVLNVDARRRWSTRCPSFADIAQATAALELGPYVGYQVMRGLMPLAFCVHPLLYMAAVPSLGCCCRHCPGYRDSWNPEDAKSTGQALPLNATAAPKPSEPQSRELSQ

[2] = tested on: ORNs in mouse olfactory epithelium slices; assay: confocal calcium imaging of fluo-4 AM loaded olfactory epithelium slices, ORNs; format: cell-based; details: for evoked calcium transients in olfactory epithelial slices: superfused onto olfactory epithelial slices (ORNs and sustentacular cells); for agonist-evoked calcium transients in ORNs: 10 μM agonist superfused onto slice
Text: (§1) To study the effects of ATP on odor responses, acutely prepared slices of mouse olfactory epithelium were used. Confocal imaging of fluo-4 AM-loaded olfactory epithelium slices allows simultaneous recording from identified structures within the olfactory epithelium, i.e., both ORNs and sustentacular cells. […] The difference in robustness can be due to poor access to the ATP stimulus: odorant receptors are on the cilia of the ORNs, which extend beyond the outer edge of the olfactory epithelium, whereas purinergic receptors are located deeper within the olfactory epithelium. […] The latency of activation for the ATP-evoked calcium transient was shorter in the ORN (FIG. 3B2, solid up arrowhead) than in sustentacular cells (FIG. 3B3, open down arrowhead). Collectively, this was consistent with ORNs expressing the faster P2X receptors, and the sustentacular cells expressing the slower G-protein coupled P2Y receptors.
(§2) To prepare olfactory epithelium slices, neonatal mice (postnatal day 0-6) were quickly decapitated, and the skin and lower jaw were removed. Tissue was mounted in ice cold Ringers onto a vibratome-cutting block and 300 μm slices were made. Primary cultures of mouse ORNs were made using the same protocol and culture conditions as described for rat olfactory receptor neurons (Vargas and Lucero, 1999a). Briefly, tissue was placed in divalent cation-free Ringers containing 10 mg/ml bovine serum albumin, 1 mg/ml deoxyribonuclease II and 44 U/ml dispase, incubated at 37° C. for 45 min. The tissue was washed, triturated, and filtered through a […] mesh and […] cells were plated onto concanavalin A-coated coverslips and allowed to settle for 20 min. An additional 1.5 ml of culture medium was added (DMEM supplemented with […] ascorbic acid, 1X insulin-transferrin-seleniumX (GIBCO BRL), 2 mM glutamine, 100 U/ml penicillin G and […] streptomycin).
(§3) [Ca^2+]i was determined using confocal imaging of fluo-4 AM (18 μM; Molecular Probes) loaded cells and slices. Cells or slices were placed in a laminar flow chamber (Warner Instruments) and perfused continuously with Ringers solution at a flow rate of 1.5-2.0 ml/min. Ringers contained (mM): 140 NaCl, 5 KCl, 1 MgCl2, 2 CaCl2, 10 HEPES, 10 glucose, […] and 400 nM tetrodotoxin. Test solutions were applied using bath exchange and a small volume loop injector (200 μl). A Zeiss LSM 510 confocal laser scanning system was used for data collection and analysis. Time series experiments were performed collecting 1400×700 pixel images at 0.2-0.4 Hz. The fluorometric signals obtained are expressed as relative fluorescence change, ΔF/F═(F−F0)/F0, where F0 is the basal fluorescence level. Increases in F greater than 10% above baseline noise were considered responses.

[3] = tested on: sustentacular cells in mouse olfactory epithelium slices; assay: confocal calcium imaging of fluo-4 AM loaded olfactory epithelium slices, sustentacular cells; format: cell-based; details: for agonist-evoked calcium transients in sustentacular cells: 10 μM agonist superfused onto slice
Text: as §1, §2, §3

[4] = tested on: odor responses of mouse ORNs in olfactory epithelium slices; assay: co-application of odor and purinergic receptor agonist, calcium transients in olfactory epithelium slices; format: cell-based
P2Y1 [5] = biological target: P2Y1 (Meleagris gallopavo, UniProt P49652); details: cDNA from Turkey brain; cited from earlier work
Sequence of P2Y1 (Meleagris gallopavo, UniProt P49652) (P49652 whole entry): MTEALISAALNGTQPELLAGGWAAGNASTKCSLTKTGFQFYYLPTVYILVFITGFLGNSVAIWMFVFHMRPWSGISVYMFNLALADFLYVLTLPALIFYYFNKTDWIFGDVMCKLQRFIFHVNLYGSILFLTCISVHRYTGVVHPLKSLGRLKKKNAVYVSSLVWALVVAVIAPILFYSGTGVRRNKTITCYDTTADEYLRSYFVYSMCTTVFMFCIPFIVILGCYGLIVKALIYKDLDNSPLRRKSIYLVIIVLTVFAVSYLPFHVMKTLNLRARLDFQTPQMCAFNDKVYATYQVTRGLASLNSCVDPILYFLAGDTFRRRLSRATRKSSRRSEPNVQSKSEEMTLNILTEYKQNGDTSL

P2Y1 [6] = biological target: P2Y1 (Gallus gallus, UniProt P34996); details: cDNA from Chick brain; cited from earlier work
Sequence of P2Y1 (Gallus gallus, UniProt P34996) (P34996 whole entry): as the sequence (P49652 whole entry) above, with S28T counted along it

P2X7 = biological target: T6, P2X7 (Rattus norvegicus, UniProt Q64663); details: cDNA from Rat macrophage and brain; cited from earlier work
T6 construct: host or cells: Xenopus oocytes
T6 sequence (Q64663 1-595): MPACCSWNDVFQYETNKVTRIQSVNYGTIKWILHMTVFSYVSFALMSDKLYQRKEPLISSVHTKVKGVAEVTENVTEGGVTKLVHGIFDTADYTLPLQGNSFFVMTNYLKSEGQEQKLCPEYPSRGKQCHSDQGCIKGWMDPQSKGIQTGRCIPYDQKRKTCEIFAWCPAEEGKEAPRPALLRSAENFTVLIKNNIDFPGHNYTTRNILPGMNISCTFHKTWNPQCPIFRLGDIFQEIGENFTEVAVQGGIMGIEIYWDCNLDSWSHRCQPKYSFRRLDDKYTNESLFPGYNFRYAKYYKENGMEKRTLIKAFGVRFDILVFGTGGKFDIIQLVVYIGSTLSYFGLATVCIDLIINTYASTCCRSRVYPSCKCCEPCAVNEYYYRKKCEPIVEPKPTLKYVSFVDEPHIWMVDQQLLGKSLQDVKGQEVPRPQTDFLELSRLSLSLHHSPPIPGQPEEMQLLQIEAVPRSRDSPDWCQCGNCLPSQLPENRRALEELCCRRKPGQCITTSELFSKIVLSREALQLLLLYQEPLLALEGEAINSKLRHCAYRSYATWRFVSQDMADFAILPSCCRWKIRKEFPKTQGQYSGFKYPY

[7] = co-application of 10 μM βγ-methylene ATP and odor, 2/16 cells
[8] = sustentacular cells, PPADS, n=30
[9] = ORNs, PPADS 25 μm, reversible, n=5

SMILES: Nc1ncnc2c1ncn2[C@@H]1O[C@H](COP(=O)(O)CP(=O)(O)OP(=O)(O)O)[C@@H](O)[C@H]1O [α,β-meATP, α,β-methylene ATP]
- Agonist activity (P2X2): 2MeSATP > ATP; α,β-meATP inactive
- Agonist activity (P2X4): ATP; α,β-meATP inactive
- Agonist activity (P2X5): α,β-meATP inactive
- Agonist activity (P2X6): ATP > 2MeSATP > ADP; α,β-meATP inactive
- Agonist activity (P2Y1 [1]; cDNA from Rat insulinoma cells): (α,β-meATP inactive)

SMILES: O=c1ccn([C@@H]2O[C@H](COP(=O)(O)OP(=O)(O)O)[C@@H](O)[C@H]2O)c(=O)[nH]1 [UDP]
- Agonist activity (P2Y11): (UTP, UDP inactive)

SMILES: Nc1ncnc2c1ncn2[C@@H]1O[C@H](CO)[C@@H](O)[C@H]1O [Adenosine]
- evoked calcium transients in olfactory epithelial slices [2]: never observed

SMILES: Nc1ncnc2c1ncn2[C@@H]1O[C@H](COP(=O)(O)O)[C@@H](O)[C@H]1O [AMP]
- evoked calcium transients in olfactory epithelial slices [2]: never observed

SMILES: Nc1ncnc2c1ncn2[C@@H]1O[C@H](COP(=O)(O)OP(=O)(O)CP(=O)(O)O)[C@@H](O)[C@H]1O [βγ-methylene ATP, β,γ-methylene ATP]
- agonist-evoked calcium transients in sustentacular cells [3]: not the sustentacular cells
- agonist-evoked calcium transients in ORNs [2]: responded
- ORNs with enhanced calcium transient amplitude ([4]; co-application of 10 μM βγ-MeATP and odors, 2 slices): 2/16
- ORNs with suppressed calcium transient amplitude ([4]; co-application of 10 μM βγ-MeATP and odors, 6 slices): 12/16
- change of amplitude in cells with no effect [4, 7]: 15±1%
- enhancement of calcium transient amplitude [4, 7]: 168±44%
- suppression of Ca2+ transient amplitude ([4]; co-application of 10 μM βγ-methylene ATP and odor, 2/16 cells as printed): 42±5%
- reduction in the average amplitude of the Ca2+ transient, overall ([4]; co-application of 10 μM βγ-methylene ATP and odor, 16/16 cells): 25±11%

SMILES: Cc1nc(N=Nc2ccc(S(=O)(=O)O)cc2S(=O)(=O)O)c(COP(=O)(O)O)c(C=O)c1O [PPADS, pyridoxalphosphate-6-azophenyl-2′,4′-disulfonic acid]
- block of ATP-evoked Ca2+ transients [3, 8]: 82±2%
- block of UTP-evoked Ca2+ transients [3, 8]: 76±2%
- block of ATP-evoked calcium transients [2, 9]: 87±5%
- block of UTP-evoked calcium transients [2, 9]: 92±3%

SMILES: O=c1ccn([C@@H]2O[C@H](COP(=O)(O)OP(=O)(O)OP(=O)(O)O)[C@@H](O)[C@H]2O)c(=O)[nH]1 [UTP]
- agonist-evoked calcium transients in sustentacular cells [3]: evoked calcium transients
- Agonist activity (P2Y11): (UTP, UDP inactive)
- agonist-evoked calcium transients in ORNs [2]: evoked calcium transients
- Agonist activity (P2Y1 [1]; cDNA from Rat ileal myocytes): (UTP inactive)
- Agonist activity (P2Y1 [5]): 2MeSATP > ADP > ATP; (UTP inactive)
- effect on co-application evoked calcium transient ([4]; P2Y selective agonists co-applied with odor): suppressed the co-application evoked calcium transient
- Agonist activity (P2Y1 [6]): 2MeSATP > ATP > ADP; (UTP inactive)
- Agonist activity (P2X7): BzATP > ATP > 2MeSATP > ADP; UTP inactive
